Assay results as given in patent US20110223666A1, “CYTOPLASM EXPOSURE ADDITIVE AND METHOD FOR EXPOSING PARTICLES DELIVERED INTO CELL TO CYTOPLASM FROM ENDOCYTIC VESICLES IN INTACT CELL” (MEDISCOV INC., priority 2008, published 2011).

Tested on: HeLa cells
Assay: Exposure of dasatinib-modified particles from endocytic vesicles to cytoplasm, seen as co-localization with EGFP-ABL1 fluorescence
Assay type: cell-based
Details: HeLa cells transfected with EGFP-ABL1 with dasatinib-particles; cells fixed by the additive, not observed in a living state
From the text: In addition, ABL1 (GenBank Acc. No. NM—198291) which binds to dasatinib was used for another linker constituting a mediator.
EGFP-ABL1 expression vector was produced by a known method (Sambrook & Russell, 2001, Molecular Cloning, Cold Spring Harbor Laboratory Press). After HeLa cells were subcultured to 6,000 cells/well on a 96-well plate, the expression vector DNA was transfected into a cell as mentioned in Example 1.
The particles modified with dasatinib were introduced into the cell transfected with DNA in the following. The cultured HeLa cells were treated with the modified particles according to the following processes:
1) Streptavidin-magnetic particles were mixed with dasatinib-biotin and the mixture was allowed to be reacted with each other. As a result, the particles modified with dasatinib were prepared;
In this embodiment, Olympus fluorescence microscope, FV1000, equipped with the object lens of Uplan Apo 40×/0.85 was used to obtain transmitted images and fluorescent images in the cells.

Row | Compound | function as a cytoplasm exposure additive (exposure of particles to cytoplasm from endocytic vesicles)
1 | CCO [ethanol] | exposed the particles to cytoplasm from endocytic vesicles effectively
2 | paraformaldehyde | exposed the particles to cytoplasm from endocytic vesicles effectively
3 | CO [methanol] | exposed the particles to cytoplasm from endocytic vesicles effectively
